{"source": "patent US20140296146A1", "about": "“Thermostable Inhibitors of Activation of the Blood Clotting System Through Contact with Foreign Surfaces” (Synapse B.V., priority 2011, published 2014)", "molecules": {"B1": {"name": "Corn trypsin inhibitor (other, UniProt P01088 29-138, looked up)", "chain": "SAGTSCVPGWAIPHNPLPSCRWYVTSRTCGIGPRLPWPELKRRCCRELADIPAYCRCTALSILMDGAIPPGPDAQLEGRLEDLPGCPREVQRGFAATLVTEAECNLATIS", "notes": "also called CTI"}}, "key": {"[1]": {"assay": "TICA1: dependence of activity on disulfides (FIG. 5)", "conditions": "relative to TICA1 with 3 disulfides = 100%", "from_the_text": "FIG. 5: Thermostable Inhibitor of Coagulation Activation (TICA1): Dependence on Disulfides."}, "[2]": {"system": "contact activation", "assay": "CAT assay at 0 pM TF on PPP from blood collection tubes with TICA added to tube or to assay", "format": "biochemical, human", "protocol": "In 12 donors blood was drawn with 7 different drawing tubes with and without addition of TICA1 in the drawing tubes (total 14 tubes; 78 ml). After preparing PPP from these tubes, CAT measurements with MP reagent and pplow reagent was performed. One donor is measured in one plate. (pplow duplicate; MP duplicate; calibrator in 4 fold. Total volume is 320 μl sample/measurement in total 88 wells/donor.\nIn 12 donors blood is taken with the following commercial available drawing tubes: (From all blooddrawing tubes one tube with and one tube without TICA will be used to draw blood)\nFinal TICA concentration after blood drawing in every tube with added TICA is 30 μg/ml whole blood.\nFinal TICA concentration in plasma after preparing PPP is 60 μg/ml (assuming an hematocit of 50%)\nCAT measurements with MP reagent and pplow reagent will be performed. One donor is measured in one plate. PPLow duplicate; MP duplicate; calibrator in 4 fold.\nTotal volume is 320 μl sample/measurement in total 88 wells/donor. NP2012 is also included in the measurement in 4 fold.\nLag times, Endogenous thrombin potentials, and peak height were recorded, For the current conditions of thrombin generation, peak height is the preferred parameter for interpretation of the results.\nPlasma with TICA added: concentration in plasma: 60 μg/ml\nStock TICA: 1.5 mg/ml=>1500 μg/ml\n20 μl TICA (stock: 1500 μg/ml) is added to 480 μl plasma."}, "[3]": {"system": "contact activation", "assay": "Clotting time of blood taken on inhibitor only, without Ca2+ binding substance", "conditions": "tube heated for one hour in boiling water; 10 μg/ml", "protocol": "Indeed STI inhibited contact activation so well that blood taken on a solution not containing sodium citrate or another substance that binds Ca^2+ ions but only STI (10 μg/ml) remained fluid for over 45 minutes, under conditions where in absence of STI it would clot in less than 5 min. […] CTI under similar circumstances, at 10 μg/ml, lost much of its activity because a clotting time of <15 min. was observed."}, "[4]": {"molecular_target": "T1, h-FXIIa (human, UniProt P00748 20-615)", "T1 construct": "also called factor XIIa", "T1 sequence (looked up)": "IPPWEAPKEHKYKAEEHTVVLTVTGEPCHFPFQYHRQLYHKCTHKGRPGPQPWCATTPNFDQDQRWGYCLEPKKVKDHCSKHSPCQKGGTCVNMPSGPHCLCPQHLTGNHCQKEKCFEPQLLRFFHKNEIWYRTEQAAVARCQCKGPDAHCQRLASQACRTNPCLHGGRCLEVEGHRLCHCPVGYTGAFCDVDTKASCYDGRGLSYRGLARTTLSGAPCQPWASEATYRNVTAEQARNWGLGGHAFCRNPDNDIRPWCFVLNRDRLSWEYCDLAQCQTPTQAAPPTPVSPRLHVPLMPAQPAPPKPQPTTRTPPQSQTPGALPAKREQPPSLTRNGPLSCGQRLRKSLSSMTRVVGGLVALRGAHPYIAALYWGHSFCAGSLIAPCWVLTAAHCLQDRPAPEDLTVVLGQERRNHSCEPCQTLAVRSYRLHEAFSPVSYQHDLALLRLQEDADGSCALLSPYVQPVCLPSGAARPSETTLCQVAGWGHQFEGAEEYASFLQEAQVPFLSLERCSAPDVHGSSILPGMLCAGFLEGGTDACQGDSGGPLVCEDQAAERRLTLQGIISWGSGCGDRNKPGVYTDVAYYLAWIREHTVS", "assay": "S2302 hydrolysis by h-FXIIa, fit of residual activity", "protocol": "(§1) Stock FXIIa was diluted 700× in BSA5. The inhibitor was diluted in BSA5 as indicated. Wells contained 70 μl diluted FXIIa (5 nM final), 70 μl inhibitor and 20 μl S2302 (475 or 462.5 μM final). The reaction was started after 5 min heating on the heating plate with S2302. Filters 405 nm and 490 nm reference. Found mΔA/min was multiplied by 2.14 to get the figure for a 1 cm path.\n(§2) in which E=[FXIIa], Ki is the dissociation constant, I=[Inhibitor], kcat and Km are Michaelis constants and S=[S2302]."}, "[5]": {"molecular_target": "T1, h-FXIIa", "assay": "S2302 hydrolysis by h-FXIIa (5.01 nM); inhibitor kept at -80° C.", "protocol": "as §1, with “ΔmA/min” for “mΔA/min”"}, "[6]": {"molecular_target": "T1, h-FXIIa", "assay": "S2302 hydrolysis by h-FXIIa (5.01 nM); inhibitor kept at -80° C. (reference)", "protocol": "as §1, with “ΔmA/min” for “mΔA/min”"}, "[7]": {"molecular_target": "T1, h-FXIIa", "assay": "S2302 hydrolysis by h-FXIIa (5 nM), fit of residual activity; dissociation constant of the complex", "protocol": "as §1, §2"}, "[8]": {"conditions": "TICA added to CAT assay, 60 μg/ml in plasma"}, "[9]": {"conditions": "TICA added to Tube, 30 μg/ml whole blood"}}}
{"molecule": "CC[C@H](C)[C@@H]1NC(=O)[C@H](CCCNC(=N)N)NC(=O)[C@@H]2CCCN2C(=O)[C@@H](NC(=O)[C@@H](NC(=O)[C@@H](N)CCCNC(=N)N)C(C)C)CSSC[C@@H]2NC(=O)[C@H](CCC(=O)O)NC(=O)[C@H](C)NC(=O)[C@H](CC(C)C)NC(=O)[C@@H]3CSSC[C@@H](C(=O)NCC(=O)O)NC(=O)[C@H](Cc4ccc(O)cc4)NC(=O)CNC(=O)[C@H](Cc4c[nH]cn4)NC(=O)[C@H](CCC(=O)O)NC(=O)[C@H](CC(C)C)NC(=O)[C@H](CSSC[C@H](NC(=O)[C@H](CCCCN)NC(=O)[C@H](CCSC)NC(=O)[C@H](CC(C)C)NC1=O)C(=O)N[C@@H](CCCCN)C(=O)N[C@@H](CCCCN)C(=O)N[C@@H](CC(=O)O)C(=O)N[C@@H](CO)C(=O)N[C@@H](CC(=O)O)C(=O)N3)NC(=O)[C@H](C(C)C)NC2=O", "note": "[TICA1]", "values": [{"measurement": "activity", "setting": "[1]", "result": 100, "unit": "%"}, {"measurement": "BD Glass 0 pM TF ETP (nM IIa · min)", "setting": "[2]; [8]", "result": "760 ± 526", "unit": "nM IIa · min"}, {"measurement": "BD Glass 0 pM TF Lagtime (min)", "setting": "[2]; [8]", "result": "38.8 ± 34.8", "unit": "min"}, {"measurement": "BD Glass 0 pM TF Peak Height (nM IIa)", "setting": "[2]; [8]", "result": "105 ± 81", "unit": "nM IIa"}, {"measurement": "BD Plastic 0 pM TF ETP (nM IIa · min)", "setting": "[2]; [8]", "result": "614 ± 538", "unit": "nM IIa · min"}, {"measurement": "BD Plastic 0 pM TF Lagtime (min)", "setting": "[2]; [8]", "result": "49.5 ± 37.7", "unit": "min"}, {"measurement": "BD Plastic 0 pM TF Peak Height (nM IIa)", "setting": "[2]; [8]", "result": "86 ± 87", "unit": "nM IIa"}, {"measurement": "Greiner 0 pM TF ETP (nM IIa · min)", "setting": "[2]; [8]", "result": "834 ± 449", "unit": "nM IIa · min"}, {"measurement": "Greiner 0 pM TF Lagtime (min)", "setting": "[2]; [8]", "result": "31.2 ± 26.7", "unit": "min"}, {"measurement": "Greiner 0 pM TF Peak Height (nM IIa)", "setting": "[2]; [8]", "result": "110 ± 70", "unit": "nM IIa"}, {"measurement": "Heamtech 0 pM TF ETP (nM IIa · min)", "setting": "[2]; [8]", "result": "666 ± 552", "unit": "nM IIa · min"}, {"measurement": "Heamtech 0 pM TF Lagtime (min)", "setting": "[2]; [8]", "result": "46.4 ± 39.7", "unit": "min"}, {"measurement": "Heamtech 0 pM TF Peak Height (nM IIa)", "setting": "[2]; [8]", "result": "93 ± 85", "unit": "nM IIa"}, {"measurement": "Sarstedt 0 pM TF ETP (nM IIa · min)", "setting": "[2]; [8]", "result": "279 ± 227", "unit": "nM IIa · min"}, {"measurement": "Sarstedt 0 pM TF Lagtime (min)", "setting": "[2]; [8]", "result": "50.0 ± 38.0", "unit": "min"}, {"measurement": "Sarstedt 0 pM TF Peak Height (nM IIa)", "setting": "[2]; [8]", "result": "26 ± 23", "unit": "nM IIa"}, {"measurement": "Terumo 0 pM TF ETP (nM IIa · min)", "setting": "[2]; [8]", "result": "276 ± 367", "unit": "nM IIa · min"}, {"measurement": "Terumo 0 pM TF Lagtime (min)", "setting": "[2]; [8]", "result": "64 ± 40.6", "unit": "min"}, {"measurement": "Terumo 0 pM TF Peak Height (nM IIa)", "setting": "[2]; [8]", "result": "33 ± 50", "unit": "nM IIa"}, {"measurement": "BD Glass 0 pM TF ETP (nM IIa · min)", "setting": "[2]; [9]", "result": "77 ± 119", "unit": "nM IIa · min"}, {"measurement": "BD Glass 0 pM TF Lagtime (min)", "setting": "[2]; [9]", "result": "76.6 ± 34.0", "unit": "min"}, {"measurement": "BD Glass 0 pM TF Peak Height (nM IIa)", "setting": "[2]; [9]", "result": "6 ± 9", "unit": "nM IIa"}, {"measurement": "BD Plastic 0 pM TF ETP (nM IIa · min)", "setting": "[2]; [9]", "result": "20 ± 61", "unit": "nM IIa · min"}, {"measurement": "BD Plastic 0 pM TF Lagtime (min)", "setting": "[2]; [9]", "result": "90.1 ± 26.8", "unit": "min"}, {"measurement": "BD Plastic 0 pM TF Peak Height (nM IIa)", "setting": "[2]; [9]", "result": "2 ± 6", "unit": "nM IIa"}, {"measurement": "Greiner 0 pM TF ETP (nM IIa · min)", "setting": "[2]; [9]", "result": "144 ± 164", "unit": "nM IIa · min"}, {"measurement": "Greiner 0 pM TF Lagtime (min)", "setting": "[2]; [9]", "result": "65.0 ± 34.8", "unit": "min"}, {"measurement": "Greiner 0 pM TF Peak Height (nM IIa)", "setting": "[2]; [9]", "result": "11 ± 13", "unit": "nM IIa"}, {"measurement": "Heamtech 0 pM TF ETP (nM IIa · min)", "setting": "[2]; [9]", "result": "289 ± 420", "unit": "nM IIa · min"}, {"measurement": "Heamtech 0 pM TF Lagtime (min)", "setting": "[2]; [9]", "result": "65.0 ± 34.8", "unit": "min"}, {"measurement": "Heamtech 0 pM TF Peak Height (nM IIa)", "setting": "[2]; [9]", "result": "36 ± 62", "unit": "nM IIa"}, {"measurement": "Sarstedt 0 pM TF ETP (nM IIa · min)", "setting": "[2]; [9]", "result": "140 ± 106", "unit": "nM IIa · min"}, {"measurement": "Sarstedt 0 pM TF Lagtime (min)", "setting": "[2]; [9]", "result": "52.5 ± 36.2", "unit": "min"}, {"measurement": "Sarstedt 0 pM TF Peak Height (nM IIa)", "setting": "[2]; [9]", "result": "10 ± 8", "unit": "nM IIa"}, {"measurement": "Terumo 0 pM TF ETP (nM IIa · min)", "setting": "[2]; [9]", "result": "59 ± 119", "unit": "nM IIa · min"}, {"measurement": "Terumo 0 pM TF Lagtime (min)", "setting": "[2]; [9]", "result": "75.7 ± 35.6", "unit": "min"}, {"measurement": "Terumo 0 pM TF Peak Height (nM IIa)", "setting": "[2]; [9]", "result": "5 ± 11", "unit": "nM IIa"}]}
{"molecule": "B1", "values": [{"measurement": "clotting time of blood after sterilization of the tube containing inhibitor", "setting": "[3]", "result": "< 15", "unit": "min"}, {"measurement": "Ki", "setting": "[4]", "result": 2.9, "unit": "nM"}, {"measurement": "Ki", "setting": "[5]", "result": 3.59, "unit": "nM"}, {"measurement": "Res. Act. (%)", "setting": "[6]", "result": 100, "unit": "%"}, {"measurement": "Ki", "setting": "[7]", "result": 2.9, "unit": "nM"}]}
